Legend:
Format in all cases: in vivo
[1] = test system: Echinochloa oryzacola Vasing.; assay: Test Example 1: herbicidal activity, application before weed generation in submerged conditions; conditions: Application herbicide amount 320 g/ha; Seventeenth Table
How it was run: (§1)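 Alluvial soil in Wagner pots flooded to 4 cm water depth; weed seeds sown and 2.5 leaf stage rice seedlings transplanted. Emulsion diluted in water applied to water surface on sowing day at stated g/ha. Greenhouse 25° C. to 30° C.; effects scored 0–5 by herbicidal ratio after three weeks.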

Monochoria vaginalis [2] = assay: as above; conditions: Application herbicide amount 320 g/ha; Seventeenth Table
How it was run: as §1

Scirpus juncoides [3] = assay: as above; conditions: Application herbicide amount 320 g/ha; Seventeenth Table
How it was run: as §1

[4] = test system: Echinochloa oryzacola Vasing.; assay: Test Example 2: herbicidal activity, application during weed generation in submerged conditions; conditions: Eighteenth Table; application herbicide amount 320 g/ha
How it was run: (§2)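 Alluvial soil in Wagner pots flooded to 4 cm water depth; seeds sown mixed, grown in greenhouse at 25–30 °C. At one- to two-leaf stage, emulsion diluted with water to the set rate (g/ha) was applied to the water surface. Effect scored 0–5 by herbicidal ratio three weeks later.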

Monochoria vaginalis [5] = assay: as above; conditions: Eighteenth Table; application herbicide amount 320 g/ha
How it was run: as §2

Scirpus juncoides [6] = assay: as above; conditions: Eighteenth Table; application herbicide amount 320 g/ha
How it was run: as §2

[7] = test system: directly sowed Oryza sativa; assay: Test Example 3: effect on crop by application to foliage (Wagner pot, water depth 0.1-0.5 cm); conditions: Nineteenth Table; application to foliage; application herbicide amount 320 g/ha
How it was run: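 Alluvial soil in 1/10000 are Wagner pots, sown and grown 14 days in a 25–30 °C greenhouse. An emulsifiable concentrate diluted in water to the set dose (g/ha) was sprayed on stems and leaves. Effect scored three weeks later on a 0–5 scale: 5 = ≥90% herbicidal ratio, 0 = ≤5%.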

Cn1nnnc1NC(=O)c1ccc(C(F)(F)F)n2c(C3CCOC3)nnc12 (stereo not drawn) [2-022]
A: Echinochloa oryzicola Vasing. (herbicidal effect grade) [1]: 5 (Herbicidal ratio of 90% or more (almost completely withered)) | C: Monochoria vaginalis (herbicidal effect grade) (Monochoria vaginalis [2]): 5 (Herbicidal ratio of 90% or more (almost completely withered)) | B: Scirpus juncoides (herbicidal effect grade) (Scirpus juncoides [3]): 5 (Herbicidal ratio of 90% or more (almost completely withered)) | A (Echinochloa oryzicola Vasing.) herbicidal ratio grade [4]: 5 (Herbicidal ratio of 90% or more (almost completely withered)) | C (Monochoria vaginalis) herbicidal ratio grade (Monochoria vaginalis [5]): 4 (Herbicidal ratio of 70% or more and less than 90%) | B (Scirpus juncoides) herbicidal ratio grade (Scirpus juncoides [6]): 5 (Herbicidal ratio of 90% or more (almost completely withered)) | b (effect on crop grade) [7]: 5 (Herbicidal ratio of 90% or more (almost completely withered))

CC(C)c1nnc2c(C(=O)N(C)c3nnnn3C)ccc(C(F)(F)F)n12 [2-023]
A: Echinochloa oryzicola Vasing. (herbicidal effect grade) [1]: 2 (Herbicidal ratio of 20% or more and less than 40%) | C: Monochoria vaginalis (herbicidal effect grade) (Monochoria vaginalis [2]): 0 (Herbicidal ratio of 5% or less (almost no effect)) | B: Scirpus juncoides (herbicidal effect grade) (Scirpus juncoides [3]): 1 (Herbicidal ratio of 5% or more and less than 20%) | A (Echinochloa oryzicola Vasing.) herbicidal ratio grade [4]: 0 (Herbicidal ratio of 5% or less (almost no effect)) | C (Monochoria vaginalis) herbicidal ratio grade (Monochoria vaginalis [5]): 1 (Herbicidal ratio of 5% or more and less than 20%) | B (Scirpus juncoides) herbicidal ratio grade (Scirpus juncoides [6]): 1 (Herbicidal ratio of 5% or more and less than 20%) | b (effect on crop grade) [7]: 1 (Herbicidal ratio of 5% or more and less than 20%)

CCSc1nnc2c(C(=O)Nc3nnnn3C)ccc(C(F)(F)F)n12 [2-024]
A: Echinochloa oryzicola Vasing. (herbicidal effect grade) [1]: 5 (Herbicidal ratio of 90% or more (almost completely withered)) | C: Monochoria vaginalis (herbicidal effect grade) (Monochoria vaginalis [2]): 5 (Herbicidal ratio of 90% or more (almost completely withered)) | B: Scirpus juncoides (herbicidal effect grade) (Scirpus juncoides [3]): 5 (Herbicidal ratio of 90% or more (almost completely withered)) | A (Echinochloa oryzicola Vasing.) herbicidal ratio grade [4]: 5 (Herbicidal ratio of 90% or more (almost completely withered)) | C (Monochoria vaginalis) herbicidal ratio grade (Monochoria vaginalis [5]): 4 (Herbicidal ratio of 70% or more and less than 90%) | B (Scirpus juncoides) herbicidal ratio grade (Scirpus juncoides [6]): 4 (Herbicidal ratio of 70% or more and less than 90%) | b (effect on crop grade) [7]: 5 (Herbicidal ratio of 90% or more (almost completely withered))

CC(C)Sc1nnc2c(C(=O)Nc3nnnn3C)ccc(C(F)(F)F)n12 [2-025]
A: Echinochloa oryzicola Vasing. (herbicidal effect grade) [1]: 5 (Herbicidal ratio of 90% or more (almost completely withered)) | C: Monochoria vaginalis (herbicidal effect grade) (Monochoria vaginalis [2]): 5 (Herbicidal ratio of 90% or more (almost completely withered)) | B: Scirpus juncoides (herbicidal effect grade) (Scirpus juncoides [3]): 5 (Herbicidal ratio of 90% or more (almost completely withered)) | A (Echinochloa oryzicola Vasing.) herbicidal ratio grade [4]: 5 (Herbicidal ratio of 90% or more (almost completely withered)) | C (Monochoria vaginalis) herbicidal ratio grade (Monochoria vaginalis [5]): 5 (Herbicidal ratio of 90% or more (almost completely withered)) | B (Scirpus juncoides) herbicidal ratio grade (Scirpus juncoides [6]): 4 (Herbicidal ratio of 70% or more and less than 90%) | b (effect on crop grade) [7]: 5 (Herbicidal ratio of 90% or more (almost completely withered))

CCOCc1nnc2c(C(=O)Nc3nnnn3C)ccc(C(F)(F)F)n12 [2-026]
A: Echinochloa oryzicola Vasing. (herbicidal effect grade) [1]: 5 (Herbicidal ratio of 90% or more (almost completely withered)) | C: Monochoria vaginalis (herbicidal effect grade) (Monochoria vaginalis [2]): 4 (Herbicidal ratio of 70% or more and less than 90%) | B: Scirpus juncoides (herbicidal effect grade) (Scirpus juncoides [3]): 5 (Herbicidal ratio of 90% or more (almost completely withered)) | A (Echinochloa oryzicola Vasing.) herbicidal ratio grade [4]: 5 (Herbicidal ratio of 90% or more (almost completely withered)) | C (Monochoria vaginalis) herbicidal ratio grade (Monochoria vaginalis [5]): 4 (Herbicidal ratio of 70% or more and less than 90%) | B (Scirpus juncoides) herbicidal ratio grade (Scirpus juncoides [6]): 5 (Herbicidal ratio of 90% or more (almost completely withered)) | b (effect on crop grade) [7]: 5 (Herbicidal ratio of 90% or more (almost completely withered))

Cn1nnnc1NC(=O)c1ccc(C(F)(F)F)n2c(C(C)(C)C)nnc12 [2-027]
A: Echinochloa oryzicola Vasing. (herbicidal effect grade) [1]: 5 (Herbicidal ratio of 90% or more (almost completely withered)) | C: Monochoria vaginalis (herbicidal effect grade) (Monochoria vaginalis [2]): 5 (Herbicidal ratio of 90% or more (almost completely withered)) | B: Scirpus juncoides (herbicidal effect grade) (Scirpus juncoides [3]): 5 (Herbicidal ratio of 90% or more (almost completely withered)) | A (Echinochloa oryzicola Vasing.) herbicidal ratio grade [4]: 5 (Herbicidal ratio of 90% or more (almost completely withered)) | C (Monochoria vaginalis) herbicidal ratio grade (Monochoria vaginalis [5]): 4 (Herbicidal ratio of 70% or more and less than 90%) | B (Scirpus juncoides) herbicidal ratio grade (Scirpus juncoides [6]): 4 (Herbicidal ratio of 70% or more and less than 90%) | b (effect on crop grade) [7]: 5 (Herbicidal ratio of 90% or more (almost completely withered))

Cn1nnnc1NC(=O)c1ccc(C(F)(F)F)n2c(C3=NOC(C)(C)C3)nnc12 [2-028]
A: Echinochloa oryzicola Vasing. (herbicidal effect grade) [1]: 5 (Herbicidal ratio of 90% or more (almost completely withered)) | C: Monochoria vaginalis (herbicidal effect grade) (Monochoria vaginalis [2]): 5 (Herbicidal ratio of 90% or more (almost completely withered)) | B: Scirpus juncoides (herbicidal effect grade) (Scirpus juncoides [3]): 5 (Herbicidal ratio of 90% or more (almost completely withered)) | A (Echinochloa oryzicola Vasing.) herbicidal ratio grade [4]: 5 (Herbicidal ratio of 90% or more (almost completely withered)) | C (Monochoria vaginalis) herbicidal ratio grade (Monochoria vaginalis [5]): 4 (Herbicidal ratio of 70% or more and less than 90%) | B (Scirpus juncoides) herbicidal ratio grade (Scirpus juncoides [6]): 4 (Herbicidal ratio of 70% or more and less than 90%) | b (effect on crop grade) [7]: 5 (Herbicidal ratio of 90% or more (almost completely withered))

CSCc1nnc2c(C(=O)Nc3nnnn3C)ccc(C(F)(F)F)n12 [2-029]
A: Echinochloa oryzicola Vasing. (herbicidal effect grade) [1]: 5 (Herbicidal ratio of 90% or more (almost completely withered)) | C: Monochoria vaginalis (herbicidal effect grade) (Monochoria vaginalis [2]): 5 (Herbicidal ratio of 90% or more (almost completely withered)) | B: Scirpus juncoides (herbicidal effect grade) (Scirpus juncoides [3]): 5 (Herbicidal ratio of 90% or more (almost completely withered)) | A (Echinochloa oryzicola Vasing.) herbicidal ratio grade [4]: 5 (Herbicidal ratio of 90% or more (almost completely withered)) | C (Monochoria vaginalis) herbicidal ratio grade (Monochoria vaginalis [5]): 4 (Herbicidal ratio of 70% or more and less than 90%) | B (Scirpus juncoides) herbicidal ratio grade (Scirpus juncoides [6]): 4 (Herbicidal ratio of 70% or more and less than 90%) | b (effect on crop grade) [7]: 5 (Herbicidal ratio of 90% or more (almost completely withered))

Cn1nnnc1NC(=O)c1ccc(C(F)(F)F)n2c(CSCC(F)(F)F)nnc12 [2-030]
A: Echinochloa oryzicola Vasing. (herbicidal effect grade) [1]: 5 (Herbicidal ratio of 90% or more (almost completely withered)) | C: Monochoria vaginalis (herbicidal effect grade) (Monochoria vaginalis [2]): 4 (Herbicidal ratio of 70% or more and less than 90%) | B: Scirpus juncoides (herbicidal effect grade) (Scirpus juncoides [3]): 4 (Herbicidal ratio of 70% or more and less than 90%) | A (Echinochloa oryzicola Vasing.) herbicidal ratio grade [4]: 4 (Herbicidal ratio of 70% or more and less than 90%) | C (Monochoria vaginalis) herbicidal ratio grade (Monochoria vaginalis [5]): 4 (Herbicidal ratio of 70% or more and less than 90%) | B (Scirpus juncoides) herbicidal ratio grade (Scirpus juncoides [6]): 3 (Herbicidal ratio of 40% or more and less than 70%) | b (effect on crop grade) [7]: 5 (Herbicidal ratio of 90% or more (almost completely withered))

CC[S+]([O-])c1nnc2c(C(=O)Nc3nnnn3C)ccc(C(F)(F)F)n12 (stereo not drawn) [2-031]
A: Echinochloa oryzicola Vasing. (herbicidal effect grade) [1]: 5 (Herbicidal ratio of 90% or more (almost completely withered)) | C: Monochoria vaginalis (herbicidal effect grade) (Monochoria vaginalis [2]): 5 (Herbicidal ratio of 90% or more (almost completely withered)) | B: Scirpus juncoides (herbicidal effect grade) (Scirpus juncoides [3]): 5 (Herbicidal ratio of 90% or more (almost completely withered)) | A (Echinochloa oryzicola Vasing.) herbicidal ratio grade [4]: 5 (Herbicidal ratio of 90% or more (almost completely withered)) | C (Monochoria vaginalis) herbicidal ratio grade (Monochoria vaginalis [5]): 4 (Herbicidal ratio of 70% or more and less than 90%) | B (Scirpus juncoides) herbicidal ratio grade (Scirpus juncoides [6]): 4 (Herbicidal ratio of 70% or more and less than 90%) | b (effect on crop grade) [7]: 5 (Herbicidal ratio of 90% or more (almost completely withered))

CC(C)[S+]([O-])c1nnc2c(C(=O)Nc3nnnn3C)ccc(C(F)(F)F)n12 (stereo not drawn) [2-032]
A: Echinochloa oryzicola Vasing. (herbicidal effect grade) [1]: 5 (Herbicidal ratio of 90% or more (almost completely withered)) | C: Monochoria vaginalis (herbicidal effect grade) (Monochoria vaginalis [2]): 5 (Herbicidal ratio of 90% or more (almost completely withered)) | B: Scirpus juncoides (herbicidal effect grade) (Scirpus juncoides [3]): 5 (Herbicidal ratio of 90% or more (almost completely withered)) | A (Echinochloa oryzicola Vasing.) herbicidal ratio grade [4]: 5 (Herbicidal ratio of 90% or more (almost completely withered)) | C (Monochoria vaginalis) herbicidal ratio grade (Monochoria vaginalis [5]): 5 (Herbicidal ratio of 90% or more (almost completely withered)) | B (Scirpus juncoides) herbicidal ratio grade (Scirpus juncoides [6]): 5 (Herbicidal ratio of 90% or more (almost completely withered)) | b (effect on crop grade) [7]: 5 (Herbicidal ratio of 90% or more (almost completely withered))

Cn1nnnc1NC(=O)c1ccc(C(F)(F)F)n2c(C[S+](C)[O-])nnc12 (stereo not drawn) [2-033]
A: Echinochloa oryzicola Vasing. (herbicidal effect grade) [1]: 5 (Herbicidal ratio of 90% or more (almost completely withered)) | C: Monochoria vaginalis (herbicidal effect grade) (Monochoria vaginalis [2]): 5 (Herbicidal ratio of 90% or more (almost completely withered)) | B: Scirpus juncoides (herbicidal effect grade) (Scirpus juncoides [3]): 4 (Herbicidal ratio of 70% or more and less than 90%) | A (Echinochloa oryzicola Vasing.) herbicidal ratio grade [4]: 4 (Herbicidal ratio of 70% or more and less than 90%) | C (Monochoria vaginalis) herbicidal ratio grade (Monochoria vaginalis [5]): 4 (Herbicidal ratio of 70% or more and less than 90%) | B (Scirpus juncoides) herbicidal ratio grade (Scirpus juncoides [6]): 3 (Herbicidal ratio of 40% or more and less than 70%) | b (effect on crop grade) [7]: 5 (Herbicidal ratio of 90% or more (almost completely withered))
